The test system of data set [1] is TH (+) cells in the substantia nigra. Briefly: Tyrosine hydroxylase (TH) immunohistochemistry of dopaminergic neurons in substantia nigra. It is filed as in vivo, mouse. The following applies: 6-OHDA HBr injected into left striatum; top of FIG. 6. The procedure:
The mouse was anesthetized with chloral hydrate (400 mg/kg, ip) and fixed in a stereotaxic frame. 6-OHDA HBr (276 μg/μl×5 μl) was injected through a Hamilton microsyringe into two left striatum sites (1 mm AP, […] relative to bregma and […] and 1 mm AP, […] relative to bregma and […]) for 4 minutes (Day 0). Then, the mouse recovered from anesthesia was maintained at body temperature in a 37° C. incubator for 2 hours.
2′-FL (500 μM×20 μl) and saline (control; 20 μl) were injected into the nose from days 0 to 28. To determine whether or not Parkinson's disease was induced and to observe behavioral changes, methamphetamine was administered to […] and behavioral changes were observed on days 7, 21, and 28, respectively (FIG. 3). FIG. 3 illustrates the timeline of an in vivo experiment.
After the rotation test, the animals were slaughtered and brain tissue was removed therefrom (Veh, n=5; 2′-FL, n=4). The distribution of dopaminergic neurons was measured by immunohistochemistry using tyrosine hydroxylase (TH).
Specifically, the entire brain was sectioned to a thickness of 25 μm using a cryosection machine. […] The brain tissue was bound with a secondary antibody (concentration 1:500) and then was attached to a glass slide and expression was observed using a fluorescence microscope.

Data set [2] has as its system dopaminergic neuron culture from ventral mesencephalon tissue. Briefly: 6-OHDA-mediated dopaminergic degeneration in primary ventral mesencephalon neuron culture (tyrosine hydroxylase immunocytochemistry). The format is cell-based, Sprague-Dawley rats. The conditions noted are these: 6-OHDA 100 μM alone, 48 hours, FIG. 2. As for the experimental part: Dopaminergic neuron culture was prepared from ventral mesencephalon tissue of E14-E15 embryos obtained from pregnant Sprague-Dawley rats. Specifically, the dissected ventral brain tissue was pooled and agitated for 15 minutes at 37° C. to separate the cells in pre-warmed trypsin EDTA (025%) and then the cells were washed with DMEM (Dulbecco's modified Eagle medium)/F12 culture medium. After washing, essential growth factors were added thereto, followed by culturing. 50% of the culture medium was replaced with fresh culture medium on the 3rd and 5th days of culture and the result was allowed to stand. From the 7th day of culture, antioxidant factors were excluded.
In addition, on the 10th day of culture, the neurotoxic substances 6-OHDA and 6-OHDA+2′-FL were added to the cells. After 48 hours, the cells were immobilized using 4% PFA (paraformaldehyde; Sigma-Aldrich) (FIG. 1). FIG. 1 illustrates the timeline of an in vitro experiment.
The viability rate of dopamine cells was determined from the immobilized cells using immunocytochemistry using tyrosine hydroxylase. Six samples were used for each group. The composition of each group is shown in Table 1 below and the number of cells was 1×10^6 which was constant for each group.

Molecules are shown by their SMILES.

With `NCCc1cc(O)c(O)cc1O` [6-OHDA], the “number of TH (+) cells in the substantia nigra after the toxin” value in data set [1] is “significantly reduced”. Besides, the “decrease in dopamine cells compared to the normal cell group” value in data set [2] is on record as “caused a severe decrease in dopamine cells”.

(Values after patent US12667582B2, “Composition containing 2′-FL for ameliorating, preventing or treating diseases caused by reduction of dopamine” (priority 2022, dated 2026).)
